Active and inactive are the calls of the source. The calls are words filed in the database; no cut-off is given here.
Columns and labels:
[1] = target: Amyloid-beta precursor protein (Homo sapiens) (UniProt P05067); experiment: Inhibition of amyloid beta (unknown origin) fibril formation at 10 uM by thioflavin T fluorescent dye assay
HT-22 [2] = experiment: Neuroprotective activity in mouse HT22 cells assessed as reduction of amyloid beta (1 to 42)-induced cytotoxicity by measuring green to red fluorescence ratio using JC1 staining at 10 uM after 10 mins relative to amyloid beta (1 to 42) treated control; assay type: functional
[3] = Cytotoxicity against mouse HT22 cells assessed as cell viability at 10 uM by MTT assay relative to control; assay type: cell-based, HT-22; settings: read-out: Activity
[4] = target: Amyloid-beta precursor protein (Homo sapiens) (UniProt P05067); experiment: Inhibition of amyloid beta (1 to 42) (unknown origin) oligomerization at 10 uM after 2 hrs by SDS-PAGE analysis
HT-22 [5] = experiment: Neuroprotective activity in mouse HT22 cells assessed as reduction of amyloid beta (1 to 42)-induced cytotoxicity by measuring green to red fluorescence ratio using JC1 staining at 10 uM after 10 mins relative to control; assay type: functional; settings: HT-22, 10 min

Sequence of Amyloid-beta precursor protein (Homo sapiens) (P05067 whole entry): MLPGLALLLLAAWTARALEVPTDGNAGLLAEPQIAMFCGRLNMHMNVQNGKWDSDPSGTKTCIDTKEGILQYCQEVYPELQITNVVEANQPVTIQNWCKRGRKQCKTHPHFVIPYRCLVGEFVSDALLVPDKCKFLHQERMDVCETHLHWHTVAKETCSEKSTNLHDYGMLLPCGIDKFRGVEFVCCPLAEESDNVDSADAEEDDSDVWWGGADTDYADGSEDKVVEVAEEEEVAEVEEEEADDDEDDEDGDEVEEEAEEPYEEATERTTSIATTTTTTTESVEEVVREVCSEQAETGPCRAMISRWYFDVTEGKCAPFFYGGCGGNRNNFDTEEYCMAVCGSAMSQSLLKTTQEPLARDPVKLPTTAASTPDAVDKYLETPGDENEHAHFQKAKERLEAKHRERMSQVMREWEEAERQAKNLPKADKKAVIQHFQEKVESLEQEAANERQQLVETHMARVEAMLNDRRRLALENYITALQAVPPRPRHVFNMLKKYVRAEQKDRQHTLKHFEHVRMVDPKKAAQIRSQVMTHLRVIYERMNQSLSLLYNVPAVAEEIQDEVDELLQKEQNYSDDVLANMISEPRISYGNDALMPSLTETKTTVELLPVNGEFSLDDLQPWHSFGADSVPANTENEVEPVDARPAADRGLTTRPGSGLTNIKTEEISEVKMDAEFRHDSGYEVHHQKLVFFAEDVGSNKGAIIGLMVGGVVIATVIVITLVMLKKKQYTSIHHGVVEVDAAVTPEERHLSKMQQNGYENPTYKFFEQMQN

inhibition [1] [%]	Structure (SMILES)	other results
12.5	COc1ccc(-c2cc3cc(/C=C/C(=O)O)cc(OC)c3o2)cc1	–
32.5	COc1ccc(-c2cc3cc(/C=C/C(=O)O)cc(O)c3o2)cc1N(C)C	–
50.2	COc1cc(-c2cc3cc(/C=C/C(=O)O)cc(OC)c3o2)ccc1N(C)C	Ratio (HT-22 [2]): 104.2; viability at 10 µM [3]: 104%; inhibition [4]: Active
57.5	COc1cc(/C=C/C(=O)O)cc2cc(-c3ccc(N(C)C)c(F)c3)oc12	Ratio (HT-22 [2]): 103.1; viability at 10 µM [3]: 102%; inhibition [4]: Active
57	CN(C)c1ccc(-c2cc3cc(/C=C/C(=O)O)ccc3o2)cc1	–
16.8	O=C(O)/C=C/c1cc(O)c2oc(-c3ccccc3)cc2c1	–
7	COc1cc(/C=C/C(=O)O)cc2cc(-c3ccccc3F)oc12	–
0	O=C(O)/C=C/c1cc(O)c2oc(-c3cccc(O)c3)cc2c1	–
42.6	COc1cc(-c2cc3cc(/C=C/C(=O)O)cc(O)c3o2)ccc1O	Ratio (HT-22 [2]): 115.9; viability at 10 µM [3]: 105%
0	COc1cc(/C=C/C(=O)O)cc2cc(-c3cccc(O)c3)oc12	–
72.6	COc1cc(/C=C/C(=O)O)cc2cc(-c3ccc(N(C)C)cc3)oc12	Ratio (HT-22 [2]): 90.3; viability at 10 µM [3]: 93.3%; inhibition [4]: Active
14.8	COc1cc(/C=C/C(=O)O)cc2cc(-c3ccc(O)cc3)oc12	–
8.1	CN(C)c1ccccc1-c1cc2cc(/C=C/C(=O)O)cc(O)c2o1	–
0.4	COc1cc(/C=C/C(=O)O)cc2cc(-c3cccc(F)c3)oc12	–
19.7	O=C(O)/C=C/c1cc(O)c2oc(-c3ccccc3F)cc2c1	–
34.2	COc1ccc(-c2cc3cc(/C=C/C(=O)O)cc(O)c3o2)cc1	–
14.3	O=C(O)/C=C/c1cc(O)c2oc(-c3cccc(F)c3)cc2c1	–
11.7	COc1ccc(-c2cc3cc(/C=C/C(=O)O)cc(OC)c3o2)cc1N(C)C	–
33.3	CN(C)c1cccc(-c2cc3cc(/C=C/C(=O)O)cc(O)c3o2)c1	–
26.7	O=C(O)/C=C/c1cc(O)c2oc(-c3ccc(F)cc3)cc2c1	–

inhibition [1] [%]	Structure (SMILES)	other results
0	COc1cccc(-c2cc3cc(/C=C/C(=O)O)cc(OC)c3o2)c1	–
28.3	O=C(O)/C=C/c1cc(O)c2oc(-c3ccccc3O)cc2c1	–
42.8	COc1cc(/C=C/C(=O)O)ccc1O	inhibition [4]: Active
9.9	COc1cc(/C=C/C(=O)O)cc2cc(-c3ccc(F)c(N(C)C)c3)oc12	–
43.3	COc1ccc(-c2cc3cc(/C=C/C(=O)O)cc(O)c3o2)cc1O	inhibition at 10 µM (HT-22 [5]): 14.5%; Ratio (HT-22 [2]): 122.1; viability at 10 µM [3]: 104%
28.4	COc1cc(-c2cc3cc(/C=C/C(=O)O)cc(OC)c3o2)ccc1O	–
0	COc1ccccc1-c1cc2cc(/C=C/C(=O)O)cc(O)c2o1	–
16.8	CN(C)c1cc(-c2cc3cc(/C=C/C(=O)O)cc(O)c3o2)ccc1F	–
0	COc1ccc(-c2cc3cc(/C=C/C(=O)O)cc(OC)c3o2)cc1O	–
0	COc1ccccc1-c1cc2cc(/C=C/C(=O)O)cc(OC)c2o1	–
70.6	CN(C)c1ccc(-c2cc3cc(/C=C/C(=O)O)cc(O)c3o2)cc1	inhibition at 10 µM (HT-22 [5]): 73.1%; Ratio (HT-22 [2]): 123.2; viability at 10 µM [3]: 100%; inhibition [4]: Active
45.9	COc1cc(-c2cc3cc(/C=C/C(=O)O)cc(O)c3o2)ccc1N(C)C	inhibition at 10 µM (HT-22 [5]): 45%; Ratio (HT-22 [2]): 113.4; viability at 10 µM [3]: 102%; inhibition [4]: Active
0	COc1cc(/C=C/C(=O)O)cc2cc(-c3ccccc3)oc12	–
34.8	COc1cc(/C=C/C(=O)O)cc2cc(-c3cccc(N(C)C)c3)oc12	–
0	COc1cccc(-c2cc3cc(/C=C/C(=O)O)cc(O)c3o2)c1	–
22.4	O=C(O)/C=C/c1cc(O)c2oc(-c3ccc(O)cc3)cc2c1	–
2.7	COc1cc(/C=C/C(=O)O)cc2cc(-c3ccc(F)cc3)oc12	–
3.7	COc1cc(/C=C/C(=O)O)cc2cc(-c3ccccc3N(C)C)oc12	–
18.1	COc1cc(/C=C/C(=O)O)cc2cc(-c3ccccc3O)oc12	–
49.8	CN(C)c1ccc(-c2cc3cc(/C=C/C(=O)O)cc(O)c3o2)cc1F	inhibition at 10 µM (HT-22 [5]): 22.3%; Ratio (HT-22 [2]): 115.7; viability at 10 µM [3]: 111%; inhibition [4]: Active

Reference: ChEMBL document CHEMBL2434901, “2-Phenylbenzofuran derivatives alleviate mitochondrial damage via the inhibition of β-amyloid aggregation” (Bioorg Med Chem Lett, 2013)
